Key:
M1 (and M0) macrophages = assay: Macrophage polarization, transwell, flow cytometry and qPCR; type: cell-based, rat; conditions: treatment with IL-4; qPCR of markers and cytokines
Experimental: Costar transwell inserts (pore size 1 μm) was used for assessing the effectiveness of the released factor(s) on the polarization of macrophages and differentiation of T cells. Patches containing cytokines (4 experimental groups: no drug, IL-4 alone, TGF-β alone and IL-4/TGF-β) placed in the upper chamber. The bottom chamber contains artificial saliva modified media and 10^5 of either primary monocytes or naïve T cells or both (5×10^4). The isolation of primary monocytes was performed as described. Naïve T cells isolated using EasySep Rat T Cell Isolation Kit (STEMCELL Technologies) according to manufacturer's protocol. The change in macrophage phenotypes tested at different time points (day 1-5) using flow cytometry by checking the surface markers (M1): major histocompatibility complex class II (MHC II), CCR7, CD80 and CD86; M2: CD163 (M2c) and CD206 (M2a)). […] Quantitative PCR (qPCR) was used to determine the gene expression of these inflammatory cytokines and cellular markers (as exemplified in FIG. 11D). […] The expression of Foxp3 was measured by flow cytometry. […]
Costar transwell inserts (pore size 1 μm) were used to assess the effectiveness of released factor(s) on macrophage polarization and T cell differentiation. […] Quantitative PCR (qPCR) was used to determine gene expression of inflammatory cytokines and cellular markers (as exemplified in FIG. 23A-23B). […]

[1] = Cytokine loading and release from microparticles/microneedles in artificial saliva, ELISA; type: physicochemical; conditions: 37° C., up to four weeks
Excerpt: For high quality periodontal treatment, the periodontal patch should act as an immunomodulator by delivering small molecules drugs and/or bioactive molecules to control infection (e.g., with antibiotics), modulate inflammation (e.g., FIG. 11A) and induce the recovery of alveolar bone. Here we used same method as described in Approach 1 to fabricate microneedles (FIG. 10A). IL-4- or TGF-β-loaded silica-heparin microparticles mixed with polymer (e.g., alginate) solution and cast into the molds to generate the microneedle patches. […] At selected time intervals (every 12 hour), the medium was collected and analyzed for released proteins using ELISA Kits. At the end of release study, the remaining proteins extracted from the particles/needles by dissolving them and the percentage of cumulative released proteins measured according to methods explained before. The released percentage measured based on the ratio of the amount released at each time point to the amount that was initially loaded. […]
The microneedle chemical formulation can be further modified for co-encapsulation of both small molecule antibiotics (encapsulated in PLGA NPs) and cytokines (encapsulated in alginate-heparin microparticles), which was integrated and addressed in Aim 3. […] At selected time intervals (every 12 hours), media was collected and analyzed for released proteins using ELISA. […]

periodontal disease = conditions: 40 ng local administration per treatment, rat model; cited from earlier work
naïve CD4+ T-cells = assay: Induced Treg differentiation, Foxp3/CD25 by flow cytometry; type: cell-based, rat; conditions: soluble (no particles) TGF-β
Experimental: Activation and differentiation of T cells were tested by considering expression of CD25 surface activation marker (FIG. 11C) as well as intracellular expression of the transcription factor Foxp3. […] We also tested the ability of controlling differentiation of naïve T-cells into induced Treg by providing sustained release TGF-β from alginate-based particles. We cultured rigorously naïve CD4+ T-cells with anti-CD3 and anti-CD28 for 4 days in the wells containing the microparticles loaded with TGF-β at different concentrations and compared them to the soluble (no particles) counterparts at identical concentrations. The expression of Foxp3 was measured by flow cytometry. […] T cell activation and differentiation was tested by expression of CD25 surface activation marker and intracellular expression of the transcription factor Foxp3.

interleukin 4 [IL-4]
macrophage reprogramming (M1 (and M0) macrophages): successful reprograming of M1 (and M0) macrophages toward M2 | cytokine release from designed platforms [1]: prolonged release | bone regeneration (periodontal disease): helps regenerate bone | periodontal disease progression (periodontal disease): reduces periodontal disease progression

transforming growth factor beta [TGF-β]
Foxp3 expression at very high soluble concentrations (naïve CD4+ T-cells): plateaued and was even slightly suppressed | cytokine release from designed platforms [1]: prolonged release
